# Results reported in patent US5436229A, “Bisulfite adducts of arginine aldehydes” (Eli Lilly and Company, priority 1994, dated 1995).
# Non-standard residues stand in square brackets, D forms with d. Residues, ends and D or L forms follow the SMILES beside them. dCha = N[C@H](CC1CCCCC1)C(=O)O
# Experiments:
# Human plasmin = target: T1, Human plasmin (Homo sapiens, UniProt P00747); experiment: Serine protease inhibition (Kass), plasmin; format: biochemical
# T1 construct: Human plasmin is purchased from Boehringer Mannheim; purchased Boehringer Mannheim, Indianapolis, Ind
# Procedure, shortened: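 Kass values come from the thrombin chromogenic procedure applied to fibrinolytic proteases. t-PA (nt-PA single chain, or mt-PA6) paired with substrate H-D-Ile-Pro-Arg-p-nitroanilide; human plasmin paired with H-D-Val-Leu-Lys-p-nitroanilide.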
# human thrombin = human thrombin (Homo sapiens, UniProt P00734); experiment: Thrombin amidase inhibition (Kass), chromogenic substrate; format: biochemical
# Procedure, shortened: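 Kass, in liter per mole, was averaged over several compound concentrations, using free thrombin from a rate standard curve and free inhibitor as added minus bound. Hydrolysis of chromogenic substrate (0.25 mg/ml solution) was monitored at 405 nm with human thrombin (8 NIH units/ml solution) in Tris-NaCl buffer pH 7.4, compound in 50% aqueous methanol.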
# human plasma [1] = experiment: Human plasma anticoagulation, activated partial thromboplastin time (APTT); format: biochemical
# Procedure, shortened: (§1)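 Compounds added across a wide concentration range to human plasma; APTT, PT and TT clotting times measured on a coagulation instrument, bovine thrombin used for plasma assays. Concentration doubling clotting time estimated by linear extrapolation.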
# [2] = target: T2, tissue plasminogen activator (t-PA) (Homo sapiens, UniProt P00750); experiment: Serine protease inhibition (Kass), t-PA; format: biochemical
# T2 construct: purchased American Diagnostica, Greenwich, Conn
# Bovine trypsin = target: T3, Bovine trypsin (Bos taurus, UniProt P00760); experiment: Serine protease inhibition (Kass), trypsin; format: biochemical
# T3 construct: Bovine trypsin is purchased from Worthington Biochemicals; purchased Worthington Biochemicals, Freehold, N.J
# T3 sequence (P00760 24-246): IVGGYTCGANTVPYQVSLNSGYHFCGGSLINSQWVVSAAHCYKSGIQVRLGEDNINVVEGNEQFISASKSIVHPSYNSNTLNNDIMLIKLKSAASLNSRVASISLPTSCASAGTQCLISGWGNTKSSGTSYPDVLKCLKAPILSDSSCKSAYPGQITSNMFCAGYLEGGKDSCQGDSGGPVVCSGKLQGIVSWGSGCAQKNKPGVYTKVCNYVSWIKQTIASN
# Procedure, shortened: (§2)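 Chromogenic p-nitroanilide substrate assays run as for human thrombin; trypsin with N-Benzoyl-Phe-Val-Arg-p-nitroanilide, human factor Xa with N-Benzoyl-Ile-Glu-Gly-Arg-p-nitroanilide. Values are association constants (Kass).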
# factor Xa = target: T4, factor Xa (Homo sapiens, UniProt P00742); experiment: Serine protease inhibition (Kass), factor Xa; format: biochemical
# T4 construct: Human factors X, Xa, IXa, XIa, and XIIa are purchased from Enzyme Research Laboratories; purchased Enzyme Research Laboratories, South Bend, Ind
# Procedure, shortened: as §2
# human plasma [3] = experiment: Human plasma anticoagulation, prothrombin time (PT); format: biochemical
# Procedure, shortened: as §1
# [4] = Index of Bioavailability (plasma TT AUC, oral vs i.v.); format: in vivo; conditions: rats, oral vs i.v. bolus
# Excerpt: Assays are done in duplicate and averaged.
# Each sample population represents alternating sequential time points.
# human plasma [5] = experiment: Human plasma anticoagulation, thrombin time (TT); format: biochemical
# Procedure, shortened: as §1
# T4 sequence (P00742 235-488 limits assumed): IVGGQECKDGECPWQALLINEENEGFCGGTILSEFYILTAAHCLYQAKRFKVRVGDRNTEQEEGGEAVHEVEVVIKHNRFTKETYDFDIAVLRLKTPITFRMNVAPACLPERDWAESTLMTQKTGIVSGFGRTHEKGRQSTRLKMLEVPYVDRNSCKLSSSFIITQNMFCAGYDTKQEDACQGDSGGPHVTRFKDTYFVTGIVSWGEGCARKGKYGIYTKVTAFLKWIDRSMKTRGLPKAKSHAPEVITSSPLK
# T4 sequence (P00742 41-179 partner limits assumed): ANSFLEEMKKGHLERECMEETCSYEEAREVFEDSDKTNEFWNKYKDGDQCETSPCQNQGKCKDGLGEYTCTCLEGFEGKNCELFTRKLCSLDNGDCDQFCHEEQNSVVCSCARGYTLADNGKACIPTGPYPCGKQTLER
# T2 sequence (P00750 36-562): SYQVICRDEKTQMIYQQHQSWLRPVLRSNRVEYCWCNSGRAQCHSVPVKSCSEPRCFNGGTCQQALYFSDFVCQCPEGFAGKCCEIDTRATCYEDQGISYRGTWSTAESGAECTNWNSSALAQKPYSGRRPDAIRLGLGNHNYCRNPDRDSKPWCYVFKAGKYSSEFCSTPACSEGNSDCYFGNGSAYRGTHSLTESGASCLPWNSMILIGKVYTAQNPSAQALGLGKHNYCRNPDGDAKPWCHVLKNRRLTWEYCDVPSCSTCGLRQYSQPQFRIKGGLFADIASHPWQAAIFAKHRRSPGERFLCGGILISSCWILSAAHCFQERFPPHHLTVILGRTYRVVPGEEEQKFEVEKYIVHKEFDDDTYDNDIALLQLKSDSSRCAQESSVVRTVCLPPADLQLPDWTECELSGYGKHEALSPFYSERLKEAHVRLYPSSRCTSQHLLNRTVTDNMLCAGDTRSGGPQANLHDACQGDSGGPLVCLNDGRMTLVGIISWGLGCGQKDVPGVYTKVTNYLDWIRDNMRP
# T1 sequence (P00747 581-810 limits assumed): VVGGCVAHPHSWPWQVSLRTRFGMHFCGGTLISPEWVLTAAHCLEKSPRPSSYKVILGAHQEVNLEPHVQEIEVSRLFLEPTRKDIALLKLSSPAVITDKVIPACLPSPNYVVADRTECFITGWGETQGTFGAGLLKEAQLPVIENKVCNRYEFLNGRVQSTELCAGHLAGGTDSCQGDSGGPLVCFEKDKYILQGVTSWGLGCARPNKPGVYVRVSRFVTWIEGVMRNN
# T1 sequence (P00747 97-580 partner limits assumed): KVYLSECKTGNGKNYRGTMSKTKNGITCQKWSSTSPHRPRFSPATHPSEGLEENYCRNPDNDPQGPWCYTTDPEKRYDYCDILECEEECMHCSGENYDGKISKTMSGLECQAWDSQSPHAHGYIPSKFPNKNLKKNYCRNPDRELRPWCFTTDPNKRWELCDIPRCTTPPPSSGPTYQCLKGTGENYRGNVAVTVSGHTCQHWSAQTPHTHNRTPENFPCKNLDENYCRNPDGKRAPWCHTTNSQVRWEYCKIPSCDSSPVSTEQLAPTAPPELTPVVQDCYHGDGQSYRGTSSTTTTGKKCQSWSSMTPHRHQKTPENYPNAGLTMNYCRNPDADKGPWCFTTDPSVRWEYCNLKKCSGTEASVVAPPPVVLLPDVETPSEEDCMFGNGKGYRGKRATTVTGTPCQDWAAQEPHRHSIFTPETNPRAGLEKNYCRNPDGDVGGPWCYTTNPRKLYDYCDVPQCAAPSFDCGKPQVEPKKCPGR
Kass Plasmin (Human plasmin),Kass Human Thrombin (human thrombin),Kass t-PA [2],Kass Trypsin (Bovine trypsin),Kass Xa (factor Xa),Percent Relative Activity (Index of Bioavailability) [4],"inhibition at 13 µg/mL ([2]; at 13 μg/mL, read-out: inhib. of t-PA)",SMILES,2 × Clotting time APTT (human plasma [1]),2 × Clotting time PT (human plasma [3]),2 × Clotting time TT (human plasma [5])
29 L/mol × 10^6,"1,700 L/mol × 10^6",2.8 L/mol × 10^6,480 L/mol × 10^6,13 L/mol × 10^6,14%,–,"CCCS(=O)(=O)N[C@H](Cc1ccccc1)C(=O)N1CCC[C@H]1C(=O)N[C@H](C=O)CCCNC(=N)N.Cl [Example 53, N-(n-propylsulfonyl)-D-phenylalanyl-L-Prolinyl-L-Arginine Aldehyde Hydrochloride]",220 ng/mL,510 ng/mL,6 ng/mL
27 L/mol × 10^6,470 L/mol × 10^6,0.83 L/mol × 10^6,230 L/mol × 10^6,8.3 L/mol × 10^6,18%,–,"CCCCS(=O)(=O)N[C@H](Cc1ccccc1)C(=O)N1CCC[C@H]1C(=O)N[C@H](C=O)CCCNC(=N)N.Cl [Example 54, N-(n-butylsulfonyl)-D-phenylalanyl-L-Prolinyl-L-Arginine Aldehyde Hydrochloride]",300 ng/mL,700 ng/mL,18 ng/mL
25 L/mol × 10^6,460 L/mol × 10^6,3.5 L/mol × 10^6,260 L/mol × 10^6,6.0 L/mol × 10^6,10%,–,"CC(C)S(=O)(=O)N[C@H](Cc1ccccc1)C(=O)N1CCC[C@H]1C(=O)N[C@H](C=O)CCCNC(=N)N.Cl [Example 55, N-(isopropylsulfonyl)-D-phenylalanyl-L-Prolinyl-L-Arginine Aldehyde Hydrochloride]",270 ng/mL,510 ng/mL,13 ng/mL
21 L/mol × 10^6,300 L/mol × 10^6,–,160 L/mol × 10^6,3.9 L/mol × 10^6,26%,100%,"CN(C)S(=O)(=O)N[C@H](Cc1ccccc1)C(=O)N1CCC[C@H]1C(=O)N[C@H](C=O)CCCNC(=N)N.Cl [Example 56, N-(dimethylaminosulfonyl)-D-phenylalanyl-L-Prolinyl-L-Arginine Aldehyde Hydrochloride]",360 ng/mL,480 ng/mL,46 ng/mL
19 L/mol × 10^6,270 L/mol × 10^6,2.3 L/mol × 10^6,180 L/mol × 10^6,3.6 L/mol × 10^6,3%,–,"Cl.N=C(N)NCCC[C@@H](C=O)NC(=O)[C@@H]1CCCN1C(=O)[C@@H](Cc1ccccc1)NS(=O)(=O)c1ccccc1 [Example 57, N-(phenylsulfonyl)-D-phenylalanyl-L-Prolinyl-L-Arginine Aldehyde Hydrochloride]",450 ng/mL,930 ng/mL,14 ng/mL
25 L/mol × 10^6,230 L/mol × 10^6,2.4 L/mol × 10^6,160 L/mol × 10^6,11 L/mol × 10^6,6%,–,"Cl.N=C(N)NCCC[C@@H](C=O)NC(=O)[C@@H]1CCCN1C(=O)[C@@H](Cc1ccccc1)NS(=O)(=O)c1ccc(F)cc1F [Example 58, N-(2,4-difluorophenylsulfonyl)-D-phenylalanyl-L-Prolinyl-L-Arginine Aldehyde Hydrochloride]",350 ng/mL,940 ng/mL,21 ng/mL
7.0 L/mol × 10^6,70 L/mol × 10^6,1.1 L/mol × 10^6,43 L/mol × 10^6,2.0 L/mol × 10^6,13%,–,"Cl.N=C(N)NCCC[C@@H](C=O)NC(=O)[C@@H]1CCCN1C(=O)[C@@H](Cc1ccccc1)NS(=O)(=O)c1ccc(C(=O)O)cc1 [Example 62, N-(4-carboxyphenylsulfonyl)-D-phenylalanyl-L-Prolinyl-L-Arginine Aldehyde Hydrochloride]","1,200 ng/mL","3,000 ng/mL",120 ng/mL
0.49 L/mol × 10^6,480 L/mol × 10^6,0.046 L/mol × 10^6,69 L/mol × 10^6,0.11 L/mol × 10^6,1%,–,"Cl.N=C(N)NCCC[C@@H](C=O)NC(=O)[C@@H]1CCCN1C(=O)[C@@H](Cc1ccccc1)NCC1CCCCC1 [Example 74, N-(cyclohexylmethyl)-D-phenylalanyl-L-Prolinyl-L-Arginine Aldehyde Hydrochloride]",860 ng/mL,"1,200 ng/mL",16 ng/mL
16 L/mol × 10^6,170 L/mol × 10^6,2.5 L/mol × 10^6,240 L/mol × 10^6,2.3 L/mol × 10^6,14%,–,"CCOC(=O)N[C@H](Cc1ccccc1)C(=O)N1CCC[C@H]1C(=O)N[C@H](C=O)CCCNC(=N)N.Cl [Example 77, N-(ethoxycarbonyl)-D-phenylalanyl-L-Prolinyl-L-Arginine Aldehyde Hydrochloride]",390 ng/mL,"2,000 ng/mL",22 ng/mL

SMILES,Kass Plasmin (Human plasmin),Kass Human Thrombin (human thrombin),Kass t-PA [2],Kass Trypsin (Bovine trypsin),Kass Xa (factor Xa),Percent Relative Activity (Index of Bioavailability) [4],"inhibition at 13 µg/mL ([2]; at 13 μg/mL, read-out: inhib. of t-PA)",2 × Clotting time APTT (human plasma [1]),2 × Clotting time PT (human plasma [3]),2 × Clotting time TT (human plasma [5])
"CCS(=O)(=O)N[C@H](CC1CCCCC1)C(=O)N1CCC[C@H]1C(=O)N[C@H](C=O)CCCNC(=N)N.Cl [Example 65, N-(ethylsulfonyl)-D-cyclohexylalanyl-L-Prolinyl-L-Arginine Aldehyde Hydrochloride]",45 L/mol × 10^6,550 L/mol × 10^6,0.73 L/mol × 10^6,200 L/mol × 10^6,20 L/mol × 10^6,19%,–,260 ng/mL,730 ng/mL,25 ng/mL
"CC(=O)N[C@H](CC1CCCCC1)C(=O)N1CCC[C@H]1C(=O)N[C@H](C=O)CCCNC(=N)N.Cl [Example 72, N-(acetyl)-D-cyclohexylalanyl-L-Prolinyl-L-Arginine Aldehyde Hydrochloride] (Ac-[dCha]-Pro-Arg-aldehyde)",0.61 L/mol × 10^6,26 L/mol × 10^6,0.035 L/mol × 10^6,12 L/mol × 10^6,1.1 L/mol × 10^6,9%,–,"1,900 ng/mL","3,500 ng/mL",92 ng/mL
